The source of these data is US20090312361A1, “NOVEL PHARMACEUTICAL COMPOSITIONS FOR TREATING ACQUIRED CHRONIC PAIN AND ASSOCIATED DYSPHORIA” (priority 2004, published 2009).

For series [1] the following is noted: cited from earlier work; for accumulation: during multiple dose treatment with tramadol.
In a further series the target is μ-opiate receptors (Homo sapiens, UniProt P35372). The conditions noted are these: cited from earlier work.
A further series concerns pain. The following applies: cited from earlier work.
Another series has as its system child. The conditions noted are these: 4 mg/kg of tramadol to a child; cited from earlier work.
For series [2], the system named is neurogenic pain in the distal lower limbs, feet and digits; lower back pain. Nature of the series: Treatment of patient with severe back pain (Patient 1, case report). The conditions noted are these: Patient 1, oral tramadol at doses up to 500 mg per day as needed.
Series [3] relates to neuropathic pain (secondary peripheral distal neuropathy of both feet and legs). Nature of the series: Treatment of patient suffering from diabetic neuropathy (Patient 2, case report). The series is classed as in vivo, human. On the procedure:
Patient 2 was a person with a history of untreated diabetes. Secondary peripheral distal neuropathy of both feet and legs was among the patients' clinical complaints. […] The patient gradually self escalated the dosage of aspirin to 10 to 12×325 mg tablets per day. The patient then presented after self treatment for several weeks at the emergency room complaining of gastric pain and blood in the vomitus. […] The patient was stabilized through dietary intervention with antacids and released after several days.

For series [4] the following is noted: cited from earlier work.

Molecules are shown by their SMILES.

μ-opiate receptors, sequence (P35372 whole entry): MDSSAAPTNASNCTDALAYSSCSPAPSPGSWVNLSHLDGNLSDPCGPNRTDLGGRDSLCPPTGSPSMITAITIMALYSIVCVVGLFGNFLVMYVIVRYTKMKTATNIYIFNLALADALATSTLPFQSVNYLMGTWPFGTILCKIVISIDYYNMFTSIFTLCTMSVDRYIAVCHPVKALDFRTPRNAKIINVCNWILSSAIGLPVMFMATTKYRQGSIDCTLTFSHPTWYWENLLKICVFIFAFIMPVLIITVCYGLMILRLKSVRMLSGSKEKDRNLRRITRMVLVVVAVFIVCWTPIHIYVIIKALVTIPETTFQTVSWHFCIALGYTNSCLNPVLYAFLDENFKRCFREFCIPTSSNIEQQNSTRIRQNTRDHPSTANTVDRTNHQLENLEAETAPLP

Take `COc1cccc(C2(O)CCCCC2CN(C)C)c1` (racemic) [tramadol, (+/−)-trans (RR,SS)-2-[(di-methylamino)methyl]-1-(3-methoxyphenyl)cyclohexanol]: the “time to peak serum concentrations” value in series [1] (after oral administration) is at most 2 h. Besides, in series [1], the accumulation result is recorded as “approximately 2 fold”. Moreover, the “affinity for μ-opiate receptors, fold less than codeine” value on μ-opiate receptors (relative to codeine) is 10 fold. In addition, the “affinity for μ-opiate receptors, fold less than d-propoxyphene” value at μ-opiate receptors (relative to d-propoxyphene) is recorded as 100 fold. Also, the “affinity for μ-opiate receptors compared with dextromethorphan” value on μ-opiate receptors (relative to dextromethorphan) is listed as “equivalent to dextromethorphan”. In addition, on μ-opiate receptors (relative to morphine), the “affinity for μ-opiate receptors, fold less than morphine” value is 6.000 fold. The “duration of the analgesic effect” value in the series on pain (after a single oral dose of tramadol 100 mg) was “about 6 hours”. The “adverse effect after inadvertent administration” value with child was “seizure activity”. Besides, in series [2], the reported pain range result was “tolerable” and the side effects result is listed as “no significant side effects”.

Turning to `CN(C)C[C@H]1CCCC[C@]1(O)c1cccc(O)c1` [M1 derivative, O-desmethyltramadol], the accumulation result in series [1] is reported as “approximately 2 fold”. Moreover, the “analgesic potency relative to the parent drug” value in the series on pain (relative to tramadol) is “at least twice the analgesic potency of the parent drug”.

With `CC(=O)Oc1ccccc1C(=O)O` [aspirin, acetylsalicylic acid], in series [3] (Patient 2, 10 to 12×325 mg tablets per day for several weeks), the “diagnosis after self treatment” value was “gastro-esophageal erosion and hemorrhage”. Also, the “control of neuropathic pain” value in series [3] (Patient 2, treatment with aspirin and other NSAIDs) is listed as “only marginally effective”.

As to `Cn1c(=O)c2c(ncn2C)n(C)c1=O` [caffeine, 3,7-dihydro-1,3,7-trimethyl-1H-purine-2,6-dione], the “time to maximal plasma concentrations” value in series [4] (after oral, rectal or parenteral administration) is at most 1 h. In addition, in series [4] (in vivo), the half-life in plasma was 3 to 7 h.
